Reference: PubChem BioAssay (NCI)
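All cell lines were grown in 96-well plates and treated with compound for 48 hours. TGI marks complete inhibition of growth.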

How the values were obtained:
Experiment in all cases: NCI tumour cell line growth inhibition, 48 h
NCI-H23 lung = test system: NCI-H23 lung
NCI-H460 lung = test system: NCI-H460 lung
OVCAR-3 ovarian = test system: OVCAR-3 ovarian
SR leukemia = test system: SR leukemia
DU-145 prostate = test system: DU-145 prostate
SF-268 CNS = test system: SF-268 CNS
HT29 colon = test system: HT29 colon
RPMI-8226 leukemia = test system: RPMI-8226 leukemia
OVCAR-5 ovarian = test system: OVCAR-5 ovarian
HCT-116 colon = test system: HCT-116 colon
HS 578T breast = test system: HS 578T breast
HOP-92 NSCLC = test system: HOP-92 NSCLC
SNB-75 CNS = test system: SNB-75 CNS
U251 CNS = test system: U251 CNS
NCI-H226 lung = test system: NCI-H226 lung
UACC-257 melanoma = test system: UACC-257 melanoma
SK-MEL-28 melanoma = test system: SK-MEL-28 melanoma
SW-620 colon = test system: SW-620 colon
MALME-3M melanoma = test system: MALME-3M melanoma
SK-OV-3 ovarian = test system: SK-OV-3 ovarian

SMILES | TGI (NCI-H23 lung) [µM] | TGI (NCI-H460 lung) [µM] | TGI (OVCAR-3 ovarian) [µM] | TGI (SR leukemia) [µM] | TGI (DU-145 prostate) [µM] | TGI (SF-268 CNS) [µM] | TGI (HT29 colon) [µM] | TGI (RPMI-8226 leukemia) [µM] | TGI (OVCAR-5 ovarian) [µM] | TGI (HCT-116 colon) [µM] | TGI (HS 578T breast) [µM] | TGI (HOP-92 NSCLC) [µM] | TGI (SNB-75 CNS) [µM] | TGI (U251 CNS) [µM] | TGI (NCI-H226 lung) [µM] | TGI (UACC-257 melanoma) [µM] | TGI (SK-MEL-28 melanoma) [µM] | TGI (SW-620 colon) [µM] | TGI (MALME-3M melanoma) [µM] | TGI (SK-OV-3 ovarian) [µM]
COc1cc(-c2nc3ccccn3c2/N=C/c2cc(Br)cc(Br)c2O)ccc1O | 67.9 | > 100 | 39 | 62.7 | 84.3 | 39.7 | 57.1 | > 100 | > 100 | 34.7 | 83.8 | 50.8 | 66.6 | 31.9 | 70.9 | 75.2 | 40.7 | 71.2 | 57.8 | 59
Cc1ccc2c(c1)CC1(Cc3ccccc3C1=O)C2=O (stereo not drawn) | > 100 | > 100 | > 100 | > 100 | > 100 | > 100 | > 100 | > 100 | > 100 | > 100 | > 100 | > 100 | > 100 | > 100 | > 100 | > 100 | > 100 | > 100 | > 100 | > 100
CCN1CCN(c2nc3ccccc3c3c2CCOc2ccccc2-3)CC1 | > 100 | > 73.9 | > 100 | 24.8 | > 31.6 | > 100 | > 51.5 | 50 | > 65.2 | > 59 | > 59.2 | > 73.1 | > 62.6 | > 79.2 | > 77.9 | 34.8 | 32.4 | > 67.5 | 35.3 | > 70.7
C1=Cc2cc3c(c4nccc(c24)N1)OCO3 | 26.3 | > 30.6 | > 100 | 5.78 | 26.6 | 28.9 | – | > 65.9 | > 69.4 | 17 | 32.5 | > 100 | 28.7 | > 100 | 36.7 | 50.7 | > 71 | > 57.8 | 26 | 55.9
CCO/C=N\C1=C(C#N)SC2=N/C(=C\c3ccc(OC)cc3)C(=O)N21 | > 100 | – | – | > 100 | > 100 | > 100 | > 100 | > 100 | > 100 | > 100 | > 100 | > 100 | 46.6 | > 100 | > 100 | > 100 | > 100 | > 100 | > 100 | > 100
O=C(NCP(=O)(c1ccccc1)c1ccccc1)OCc1ccccc1 | > 100 | > 100 | > 100 | > 100 | > 100 | > 100 | > 100 | > 100 | > 100 | > 100 | > 100 | > 100 | > 100 | > 100 | > 100 | – | > 100 | > 100 | > 100 | > 100
CO/C=C(/C(=O)OC)c1ccccc1COc1cccc(C(F)(F)F)c1 | > 100 | > 100 | 55 | > 100 | > 100 | > 100 | > 100 | 7.31 | > 100 | > 100 | > 100 | 50.5 | 64.8 | > 100 | 71.2 | 21.3 | > 100 | – | 29.4 | > 100
CCOC(C)O[C@H]1C(=O)OCC1(C)C (stereo partly drawn) | > 100 | > 100 | > 100 | > 100 | > 100 | > 100 | > 100 | > 100 | > 100 | – | > 100 | > 100 | > 100 | > 100 | > 100 | > 100 | > 100 | > 100 | > 100 | > 100
Nc1nc(-c2ccccc2)cc(-c2ccc(OCc3ccccc3)cc2O)n1 | > 100 | > 100 | 89.1 | > 100 | > 100 | > 100 | > 100 | 60.9 | > 100 | > 100 | > 100 | > 100 | > 100 | > 100 | > 100 | > 100 | > 100 | > 100 | > 100 | –
CC1(C)/C(=C/N=O)N(O)C(C)(C)N1O | > 100 | > 100 | > 100 | > 100 | > 100 | > 100 | > 100 | > 100 | > 100 | > 100 | > 100 | > 100 | > 100 | > 100 | > 100 | > 100 | > 100 | > 100 | > 100 | > 100
COC(=O)c1cc2c(cc1CC(Cc1ccc3c(c1)CCCC3)C(=O)OC)CCCC2 (stereo not drawn) | > 100 | > 100 | > 100 | > 100 | > 100 | > 100 | > 100 | 91.4 | > 100 | > 100 | > 100 | > 100 | > 100 | > 100 | > 100 | > 100 | > 100 | > 100 | > 100 | > 100
O=C1NC2O[C@H](CNC(=O)c3cc(Br)c[nH]3)CC2(O)N1 (mixture of isomers) | > 100 | > 100 | > 100 | > 100 | > 100 | > 100 | > 100 | > 100 | > 100 | > 100 | > 100 | > 100 | > 100 | > 100 | > 100 | > 100 | > 100 | > 100 | > 100 | > 100
